Assay results taken from patent US20230250054A1, “SELECTIVE HISTONE DEACETYLASE 6 INHIBITORS” (The Board of Trustees of the University of Illinois, priority 2020, published 2023).

Columns and labels:
[1] = Stability in simulated gastric fluid (SGF)
[2] = target: T1, HDAC6 (Homo sapiens, UniProt Q9UBN7); assay: Fluorescence-based HDAC inhibition assay, HDAC6; format: biochemical; settings: for LE (ligand efficiency): 1.4 × pIC50/number of heavy atoms; for selectivity over Class IIa isoforms HDAC4, 5, 7, and 9: HDAC6 vs HDAC4, 5, 7 and 9; for LipE (lipophilic ligand efficiency): pIC50 − clog Po/w
T1 construct: our assay that uses approximately 0.6 nM concentration of the full-length enzyme; made in house; host or cells: HEK293/T17 cells, transient transfection
T1 sequence (Q9UBN7 1-1215): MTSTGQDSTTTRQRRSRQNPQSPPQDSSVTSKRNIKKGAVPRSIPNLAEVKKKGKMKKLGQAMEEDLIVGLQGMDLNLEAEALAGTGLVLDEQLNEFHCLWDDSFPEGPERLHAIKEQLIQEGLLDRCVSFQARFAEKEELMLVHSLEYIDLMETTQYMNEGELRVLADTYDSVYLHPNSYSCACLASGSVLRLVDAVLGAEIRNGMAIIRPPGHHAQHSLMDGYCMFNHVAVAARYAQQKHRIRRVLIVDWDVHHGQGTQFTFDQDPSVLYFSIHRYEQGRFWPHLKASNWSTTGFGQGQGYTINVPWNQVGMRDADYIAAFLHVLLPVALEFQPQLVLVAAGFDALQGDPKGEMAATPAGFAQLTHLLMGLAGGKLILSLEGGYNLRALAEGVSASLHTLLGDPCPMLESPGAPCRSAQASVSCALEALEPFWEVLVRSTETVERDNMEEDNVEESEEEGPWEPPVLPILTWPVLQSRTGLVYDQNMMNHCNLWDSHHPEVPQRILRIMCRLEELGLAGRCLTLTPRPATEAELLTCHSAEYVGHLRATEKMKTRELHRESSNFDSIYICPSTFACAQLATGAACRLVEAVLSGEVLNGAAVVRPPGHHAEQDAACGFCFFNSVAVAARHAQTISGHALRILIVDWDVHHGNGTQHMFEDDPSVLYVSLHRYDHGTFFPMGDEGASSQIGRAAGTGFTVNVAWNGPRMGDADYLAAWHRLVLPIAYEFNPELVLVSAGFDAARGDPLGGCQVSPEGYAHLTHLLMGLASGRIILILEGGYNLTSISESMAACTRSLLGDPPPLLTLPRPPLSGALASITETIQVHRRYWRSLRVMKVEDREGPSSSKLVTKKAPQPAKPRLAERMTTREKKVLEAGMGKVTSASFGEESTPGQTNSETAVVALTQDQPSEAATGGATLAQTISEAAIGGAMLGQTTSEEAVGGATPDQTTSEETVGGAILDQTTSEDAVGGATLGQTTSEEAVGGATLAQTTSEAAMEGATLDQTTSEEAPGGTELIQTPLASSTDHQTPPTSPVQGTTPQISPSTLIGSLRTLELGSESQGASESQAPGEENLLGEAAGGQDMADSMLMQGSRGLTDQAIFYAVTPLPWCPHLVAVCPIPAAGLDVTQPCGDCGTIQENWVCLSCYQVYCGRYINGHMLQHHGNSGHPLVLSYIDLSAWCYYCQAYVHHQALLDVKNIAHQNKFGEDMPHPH
Method: (§1) Briefly, transiently transfected cells were harvested three days post-transfection and the cell pellets resuspended in a lysis buffer (50 mM Tris, 150 mM NaCl, 10 mM KCl, 2 mM MgCl2, 10% glycerol, 0.2% NP-40, 2 Units/mL benzonase, pH 8) supplemented with a cocktail of protease inhibitors (Roche, Basel, Switzerland). Cells were lysed by sonication (30 W; 3×20 s) on ice, and the cell lysate cleared by centrifugation at 40 000×g for 30 min at 4° C. […] Purified proteins were concentrated to 1 mg/mL, aliquoted, flash-frozen in liquid nitrogen, and stored at −80° C. until further use.
Briefly, individual HDACs were preincubated with dilution series of tested inhibitors (0-100 μM) in a 384-well plate in the total volume of 40 μL for 10 min at 37° C. in a reaction buffer comprising 50 mM HEPES, 140 mM NaCl, 10 mM KCl, 1 mM TCEP, 0.1% BSA, pH 7.4. Deacetylation reaction was started by the addition of 10 μL of a 10 μM substrate into the HDAC/inhibitor mixture. Following the 30 min incubation at 37° C., the reaction was terminated by the addition of 25 μL of the trypsin solution (4 mg/mL). Fluorescence development by trypsin was carried out at 37° C. for 15 and 60 min for Ac-GAK(Ac)-AMC and Boc-Lys(TFA)-AMC substrate, respectively. […] Non-linear regression analysis was employed to calculate IC50 values using the GraphPad Prism software. […] Reactions without the enzyme or the inhibitor were used to define 0% and 100% of the HDAC activity, respectively.

[3] = target: HDAC4 (Homo sapiens, UniProt P56524); assay: Fluorescence-based HDAC inhibition assay, HDAC4; format: biochemical; settings: for IC50: 10 μM Boc-Lys(TFA)-AMC substrate, mean of two experiments ± SEM
Method: as §1, with “Large scale expression of human HDACs was carried out in HEK293/T17 cells essentially as described previously (see, e.g., Falkenberg et al., Nat. Rev. Drug Discov. 13, 673-691 (2014); or Matthias et al., Cell Cycle 7: 7-10 (2008)). Briefly,” for “Briefly,”
Briefly, individual HDACs were preincubated with dilution series of tested inhibitors (0-100 μM) in a 384-well plate in the total volume of 40 μL for 10 min at 37° C. in a reaction buffer comprising 50 mM HEPES, 140 mM NaCl, 10 mM KCl, 1 mM TCEP, 0.1% BSA, pH 7.4. Deacetylation reaction was started by the addition of 10 μL of a 10 μM substrate into the HDAC/inhibitor mixture. Following the 30 min incubation at 37° C., the reaction was terminated by the addition of 25 μL of the trypsin solution (4 mg/mL). Fluorescence development by trypsin was carried out at 37° C. for 15 and 60 min for Ac-GAK(Ac)-AMC and Boc-Lys(TFA)-AMC substrate, respectively. Released aminomethylcoumarin was quantified using a CLARIOstar fluorimeter with the excitation and emission wavelengths set to 365 nm and 440 nm, respectively. Non-linear regression analysis was employed to calculate IC50 values using the GraphPad Prism software. […] Reactions without the enzyme or the inhibitor were used to define 0% and 100% of the HDAC activity, respectively.

[4] = 10 μM Ac-GAK(Ac)-AMC substrate, mean of two experiments ± SEM

HDAC4, sequence (P56524 whole entry): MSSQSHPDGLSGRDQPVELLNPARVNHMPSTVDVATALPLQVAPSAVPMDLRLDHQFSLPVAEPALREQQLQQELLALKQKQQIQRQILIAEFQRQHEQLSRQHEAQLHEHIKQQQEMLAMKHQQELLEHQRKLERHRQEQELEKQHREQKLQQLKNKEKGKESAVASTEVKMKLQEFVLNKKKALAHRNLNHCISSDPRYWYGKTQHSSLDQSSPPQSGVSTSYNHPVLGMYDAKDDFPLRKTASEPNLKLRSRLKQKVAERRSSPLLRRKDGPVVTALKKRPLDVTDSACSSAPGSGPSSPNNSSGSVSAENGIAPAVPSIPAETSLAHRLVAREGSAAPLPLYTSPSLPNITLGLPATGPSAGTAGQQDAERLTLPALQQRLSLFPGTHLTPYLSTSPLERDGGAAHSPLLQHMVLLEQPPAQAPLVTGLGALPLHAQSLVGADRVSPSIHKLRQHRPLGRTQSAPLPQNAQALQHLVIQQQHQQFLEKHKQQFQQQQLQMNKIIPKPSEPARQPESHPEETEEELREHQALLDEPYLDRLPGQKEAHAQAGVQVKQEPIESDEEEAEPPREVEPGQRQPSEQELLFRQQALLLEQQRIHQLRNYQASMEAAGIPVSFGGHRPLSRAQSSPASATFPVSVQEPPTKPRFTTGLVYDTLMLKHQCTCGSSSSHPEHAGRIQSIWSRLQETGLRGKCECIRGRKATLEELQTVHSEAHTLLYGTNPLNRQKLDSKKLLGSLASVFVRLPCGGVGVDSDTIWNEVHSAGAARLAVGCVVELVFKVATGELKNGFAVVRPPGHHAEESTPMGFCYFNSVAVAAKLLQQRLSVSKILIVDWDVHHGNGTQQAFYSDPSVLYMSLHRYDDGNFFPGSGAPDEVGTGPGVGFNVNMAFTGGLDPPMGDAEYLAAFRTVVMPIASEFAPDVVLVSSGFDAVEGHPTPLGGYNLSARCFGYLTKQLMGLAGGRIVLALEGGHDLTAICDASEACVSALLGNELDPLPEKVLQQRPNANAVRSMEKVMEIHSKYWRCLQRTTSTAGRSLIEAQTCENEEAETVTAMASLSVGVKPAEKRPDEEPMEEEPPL

SMILES | SGF stability (t1/2, h) [1] [h] | SI (HDAC6 selectivity index), HDAC6 [2] | IC50 [2, 4] [nM] | LE (ligand efficiency) [2] | selectivity over Class IIa isoforms HDAC4, 5, 7, and 9 [2] | LipE (lipophilic ligand efficiency) [2] | IC50 [3] [nM] | SI (HDAC6 selectivity index over HDAC4) [3] | IC50 ([2]; Table 2) [nM]
O=C(NO)c1ccc(CN(CCCCO)C(=O)Nc2ccccc2)cc1 [Compound 6c, reference compound] | >5 | 1 | 0.5 | 0.50 | thousand-fold selectivity | 6.98 | 14000 | – | –
CCCCN(Cc1ccc(C(=O)NO)cc1)C(=O)Nc1ccc(CN)cc1 [Compound 6b, 4-((3-(4-(Aminomethyl)phenyl)-1-butylureido)methyl)-N-hydroxybenzamide] | >5 | 1 | 0.9 ± 0.7 | 0.47 | – | 6.59 | 23100 | 25,700 | –
NCc1ccc(NC(=O)N(CCCCO)Cc2ccc(C(=O)NO)cc2)cc1 [Compound 6a, 4-((3-(4-(Aminomethyl)phenyl)-1-(4-hydroxybutyl)ureido)methyl)-N-hydroxybenz-amide] | >5 | 1 | 0.4 | 0.47 | thousand-fold selectivity | 7.57 | 8250 | 20,600 | 0.4
